Laboratory results taken from PubChem BioAssay AID248 (DTP/NCI, 2004).
Inconclusive results and toxic doses are left out. No stated cut-off is given here; in the data, active means T/C of 150% or more; inactive means T/C below 125%.

Test system: L1210 leukemia ip in BDF1 mice, survival T/C
Test: NCI In Vivo Anticancer Drug Screen. Data for tumor model L1210 Leukemia (intraperitoneal) in B6D2F1 (BDF1) mice
Settings: endpoint: mean survival time, higher = longer survival
Method in brief: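 Tumor was transplanted into mice, which were then dosed with test compound or vehicle alone. Survival was recorded for each group, and the treated figure was expressed relative to the control figure.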

[1] = dose: 50.0 mg/kg/injection, schedule: Q04DX003 (ip), vehicle: saline with Tween-80
[2] = dose: 100.0 mg/kg/injection, schedule: Q04DX003 (ip), vehicle: saline with Tween-80
[3] = dose: 200.0 mg/kg/injection, schedule: Q04DX003 (ip), vehicle: saline with Tween-80
[4] = dose: 400.0 mg/kg/injection, schedule: Q04DX003 (ip), vehicle: saline with Tween-80
[5] = dose: 100.0 mg/kg/injection, schedule: Q04DX003 (ip), vehicle: saline sonified
[6] = dose: 200.0 mg/kg/injection, schedule: Q04DX003 (ip), vehicle: saline sonified
[7] = dose: 100.0 mg/kg/injection, schedule: Q01DX001 (ip), vehicle: other
[8] = dose: 200.0 mg/kg/injection, schedule: Q01DX001 (ip), vehicle: other
[9] = dose: 400.0 mg/kg/injection, schedule: Q01DX001 (ip), vehicle: other
[10] = dose: 100.0 mg/kg/injection, schedule: Q01DX009 (ip), vehicle: saline with Tween-80
[11] = dose: 200.0 mg/kg/injection, schedule: Q01DX009 (ip), vehicle: saline with Tween-80
[12] = dose: 400.0 mg/kg/injection, schedule: Q01DX009 (ip), vehicle: saline with Tween-80

Measured: T/C

CCCCn1c2ccccc2c2ccccc21
inactive: [1] 96 % of control | [2] 96 % of control | [3] 102 % of control

Cc1ccccc1N
inactive: [2] 101 % of control | [3] 103 % of control | [4] 95 % of control

COc1cc2c(cc1OC(C)=O)C(=O)CCC=C2
inactive: dose: 100.0 mg/kg/injection, schedule: Q01DX009 (ip), vehicle: saline 113 % of control | dose: 100.0 mg/kg/injection, schedule: Q04DX003 (ip), vehicle: other 110 % of control | dose: 200.0 mg/kg/injection, schedule: Q01DX009 (ip), vehicle: saline 103 % of control | dose: 200.0 mg/kg/injection, schedule: Q04DX003 (ip), vehicle: other 115 % of control | dose: 400.0 mg/kg/injection, schedule: Q01DX009 (ip), vehicle: saline 95 % of control | dose: 400.0 mg/kg/injection, schedule: Q04DX003 (ip), vehicle: other 103 % of control

CCOc1ccc(C2(C)OC(=O)C3CCCCC32)c2ccccc12 (stereo not drawn)
inactive: dose: 100.0 mg/kg/injection, schedule: Q04DX003 (ip), vehicle: gum acacia 100 % of control | dose: 200.0 mg/kg/injection, schedule: Q04DX003 (ip), vehicle: gum acacia 95 % of control | dose: 400.0 mg/kg/injection, schedule: Q04DX003 (ip), vehicle: gum acacia 90 % of control

NNC12CCC(c3ccccc31)c1ccccc12
inactive: [5] 96 % of control | [6] 101 % of control

c1cnc(OCCN2CC2)nc1
inactive: dose: 25.0 mg/kg/injection, schedule: Q01DX001 (ip), vehicle: carboxymethylcellulose (CMC) 93 % of control | dose: 50.0 mg/kg/injection, schedule: Q01DX001 (ip), vehicle: carboxymethylcellulose (CMC) 95 % of control

Cc1nccc2c1[nH]c1cc(N)ccc12.[Cl][Sn][Cl]
inactive: dose: 5.0 mg/kg/injection, schedule: Q04DX003 (ip), vehicle: saline with Tween-80 102 % of control | dose: 10.0 mg/kg/injection, schedule: Q04DX003 (ip), vehicle: saline with Tween-80 94 % of control | dose: 20.0 mg/kg/injection, schedule: Q04DX003 (ip), vehicle: saline with Tween-80 96 % of control

On1nc(-c2ccccc2)c(-c2c(-c3ccccc3)nn(O)c2-c2ccccc2)c1-c1ccccc1
inactive: dose: 50.0 mg/kg/injection, schedule: Q01DX009 (ip), vehicle: Klucel (hydroxypropylcellulose) (HPC) 90 % of control | dose: 100.0 mg/kg/injection, schedule: Q01DX009 (ip), vehicle: Klucel (hydroxypropylcellulose) (HPC) 90 % of control | dose: 200.0 mg/kg/injection, schedule: Q01DX009 (ip), vehicle: Klucel (hydroxypropylcellulose) (HPC) 97 % of control

CCOC(=O)NCCO
inactive: dose: 100.0 mg/kg/injection, schedule: Q01DX001 (ip), vehicle: saline 103 % of control | dose: 200.0 mg/kg/injection, schedule: Q01DX001 (ip), vehicle: saline 95 % of control | dose: 400.0 mg/kg/injection, schedule: Q01DX001 (ip), vehicle: saline 97 % of control

COc1ccc(/C=C/c2cccc[n+]2C)cc1
inactive: dose: 12.5 mg/kg/injection, schedule: Q01DX009 (ip), vehicle: Klucel (hydroxypropylcellulose) (HPC) 89 % of control | dose: 12.5 mg/kg/injection, schedule: Q04DX003 (ip), vehicle: Klucel (hydroxypropylcellulose) (HPC) 100 % of control | dose: 25.0 mg/kg/injection, schedule: Q01DX009 (ip), vehicle: Klucel (hydroxypropylcellulose) (HPC) 90 % of control | dose: 25.0 mg/kg/injection, schedule: Q04DX003 (ip), vehicle: Klucel (hydroxypropylcellulose) (HPC) 94 % of control | dose: 50.0 mg/kg/injection, schedule: Q04DX003 (ip), vehicle: Klucel (hydroxypropylcellulose) (HPC) 100 % of control

CC(=O)OC1CCC(NC(=O)NCCCl)CC1 (stereo not drawn)
inactive: [7] 96 % of control | [8] 98 % of control | [9] 88 % of control

CCOC(=O)CCCCCCCCCC[N+](CC)(CC)CC(=O)c1ccc(NC(C)=O)cc1
inactive: dose: 75.0 mg/kg/injection, schedule: Q01DX001 (ip), vehicle: other 96 % of control | dose: 150.0 mg/kg/injection, schedule: Q01DX001 (ip), vehicle: other 101 % of control

O=C(Nc1ccc(OCc2ccccc2)cc1)c1ccc([N+](=O)[O-])s1
inactive: dose: 400.0 mg/kg/injection, schedule: Q01DX005 (ip), vehicle: water 89 % of control

CC(C)OC(=O)Nc1ccncc1
inactive: dose: 3.13 mg/kg/injection, schedule: Q01DX009 (ip), vehicle: saline with Tween-80 93 % of control | dose: 6.25 mg/kg/injection, schedule: Q01DX009 (ip), vehicle: saline with Tween-80 97 % of control | dose: 6.25 mg/kg/injection, schedule: Q04DX002 (ip), vehicle: saline with Tween-80 110 % of control | dose: 12.5 mg/kg/injection, schedule: Q01DX009 (ip), vehicle: saline with Tween-80 101 % of control | dose: 12.5 mg/kg/injection, schedule: Q04DX002 (ip), vehicle: saline with Tween-80 96 % of control

CN(C)C(=S)SCc1c(Cl)c(Cl)c(Cl)c(Cl)c1Cl
inactive: dose: 100.0 mg/kg/injection, schedule: Q04DX003 (ip), vehicle: Klucel (hydroxypropylcellulose) (HPC) 105 % of control | dose: 200.0 mg/kg/injection, schedule: Q04DX003 (ip), vehicle: Klucel (hydroxypropylcellulose) (HPC) 100 % of control | dose: 400.0 mg/kg/injection, schedule: Q04DX003 (ip), vehicle: Klucel (hydroxypropylcellulose) (HPC) 94 % of control

COc1ccc(CCOS(=O)(=O)c2ccc(C)cc2)cc1
inactive: [10] 100 % of control | [11] 97 % of control | [12] 100 % of control

O=C(O)c1cc([N+](=O)[O-])ccc1Oc1cccc(Cl)c1
inactive: dose: 75.0 mg/kg/injection, schedule: Q01DX001 (ip), vehicle: saline 96 % of control | dose: 150.0 mg/kg/injection, schedule: Q01DX001 (ip), vehicle: saline 95 % of control | dose: 300.0 mg/kg/injection, schedule: Q01DX001 (ip), vehicle: saline 96 % of control

O=C(NC(=O)c1cccc(Br)c1)Nc1ccccc1
inactive: dose: 264.0 mg/kg/injection, schedule: Q01DX001 (ip), vehicle: carboxymethylcellulose (CMC) 92 % of control | dose: 400.0 mg/kg/injection, schedule: Q01DX001 (ip), vehicle: carboxymethylcellulose (CMC) 96 % of control | dose: 600.0 mg/kg/injection, schedule: Q01DX001 (ip), vehicle: carboxymethylcellulose (CMC) 90 % of control

O=C(O)c1ccccc1C(=O)NCc1ccco1
inactive: dose: 50.0 mg/kg/injection, schedule: Q01DX001 (ip), vehicle: other 94 % of control | [7] 105 % of control | [8] 105 % of control | [9] 100 % of control

O=C1CC2CC1C1C(=O)OC(=O)C21 (stereo not drawn)
inactive: dose: 75.0 mg/kg/injection, schedule: Q01DX001 (ip), vehicle: acetone 91 % of control | dose: 150.0 mg/kg/injection, schedule: Q01DX001 (ip), vehicle: acetone 104 % of control | dose: 300.0 mg/kg/injection, schedule: Q01DX001 (ip), vehicle: acetone 98 % of control

Nc1ncccc1[N+](=O)[O-]
inactive: [10] 109 % of control | [11] 98 % of control | [12] 112 % of control

COc1cc2ccc(CN3CCCC3C(=O)OCc3ccccc3)cc2cc1OC (stereo not drawn)
inactive: dose: 100.0 mg/kg/injection, schedule: Q01DX009 (ip), vehicle: saline sonified 100 % of control | [5] 95 % of control | dose: 200.0 mg/kg/injection, schedule: Q01DX009 (ip), vehicle: saline sonified 96 % of control | [6] 96 % of control | dose: 400.0 mg/kg/injection, schedule: Q01DX009 (ip), vehicle: saline sonified 91 % of control | dose: 400.0 mg/kg/injection, schedule: Q04DX003 (ip), vehicle: saline sonified 96 % of control

Cc1cn(C2CC(O)C(COP(=O)(N3CC3(C)C)N3CC3(C)C)O2)c(=O)[nH]c1=O (stereo not drawn)
inactive: dose: 50.0 mg/kg/injection, schedule: Q04DX002 (ip), vehicle: saline 94 % of control | dose: 100.0 mg/kg/injection, schedule: Q04DX002 (ip), vehicle: saline 105 % of control | dose: 200.0 mg/kg/injection, schedule: Q04DX002 (ip), vehicle: saline 123 % of control

CCc1ccc(C(C)=O)o1
inactive: [7] 104 % of control | [8] 108 % of control | [9] 111 % of control

CC1=COC(C)(C2NC(C)CC(C)(C)N2)CC1 (stereo not drawn)
inactive: dose: 44.0 mg/kg/injection, schedule: Q01DX Z (ip), vehicle: methylcellulose (MC) 100 % of control | dose: 100.0 mg/kg/injection, schedule: Q01DX Z (ip), vehicle: methylcellulose (MC) 95 % of control

C1=CC2(CC1)OCCO2
inactive: dose: 50.0 mg/kg/injection, schedule: Q01DX009 (ip), vehicle: saline with Tween-80 106 % of control | [1] 91 % of control | [10] 104 % of control | [2] 102 % of control | [11] 106 % of control | [3] 92 % of control | [12] 104 % of control | [4] 102 % of control
